The record followed here is PMC7419559 (Scientific Reports, 2020).

Experiment [1] concerns the target T1, rat isoform of H3R (rH3R) (Rattus norvegicus, UniProt Q9QYN8).
T1 construct: expressed in transfected cells; host or cells: HEK-293T
Put plainly: CRE-Luc reporter gene Schild assay at rH3R in HEK-293T cells. The format is cell-based. On the procedure: The mixture was incubated for 5 h under culture conditions. […] Lysed homogenate was transferred into white microplates. […] For experiments employing radiolabeled ligands, raw data that were measured as counts-per-minute [c.p.m.] were reduced by non-specific binding. […] Data were stated as means ± s.d. […] Data were stated as means ± s.d. with the indicated number of replicates.

In a further experiment the target is T2, G9a (Homo sapiens, UniProt Q96KQ7).
T2 construct: purchased Sigma-Aldrich
T2 sequence (Q96KQ7 1-1210): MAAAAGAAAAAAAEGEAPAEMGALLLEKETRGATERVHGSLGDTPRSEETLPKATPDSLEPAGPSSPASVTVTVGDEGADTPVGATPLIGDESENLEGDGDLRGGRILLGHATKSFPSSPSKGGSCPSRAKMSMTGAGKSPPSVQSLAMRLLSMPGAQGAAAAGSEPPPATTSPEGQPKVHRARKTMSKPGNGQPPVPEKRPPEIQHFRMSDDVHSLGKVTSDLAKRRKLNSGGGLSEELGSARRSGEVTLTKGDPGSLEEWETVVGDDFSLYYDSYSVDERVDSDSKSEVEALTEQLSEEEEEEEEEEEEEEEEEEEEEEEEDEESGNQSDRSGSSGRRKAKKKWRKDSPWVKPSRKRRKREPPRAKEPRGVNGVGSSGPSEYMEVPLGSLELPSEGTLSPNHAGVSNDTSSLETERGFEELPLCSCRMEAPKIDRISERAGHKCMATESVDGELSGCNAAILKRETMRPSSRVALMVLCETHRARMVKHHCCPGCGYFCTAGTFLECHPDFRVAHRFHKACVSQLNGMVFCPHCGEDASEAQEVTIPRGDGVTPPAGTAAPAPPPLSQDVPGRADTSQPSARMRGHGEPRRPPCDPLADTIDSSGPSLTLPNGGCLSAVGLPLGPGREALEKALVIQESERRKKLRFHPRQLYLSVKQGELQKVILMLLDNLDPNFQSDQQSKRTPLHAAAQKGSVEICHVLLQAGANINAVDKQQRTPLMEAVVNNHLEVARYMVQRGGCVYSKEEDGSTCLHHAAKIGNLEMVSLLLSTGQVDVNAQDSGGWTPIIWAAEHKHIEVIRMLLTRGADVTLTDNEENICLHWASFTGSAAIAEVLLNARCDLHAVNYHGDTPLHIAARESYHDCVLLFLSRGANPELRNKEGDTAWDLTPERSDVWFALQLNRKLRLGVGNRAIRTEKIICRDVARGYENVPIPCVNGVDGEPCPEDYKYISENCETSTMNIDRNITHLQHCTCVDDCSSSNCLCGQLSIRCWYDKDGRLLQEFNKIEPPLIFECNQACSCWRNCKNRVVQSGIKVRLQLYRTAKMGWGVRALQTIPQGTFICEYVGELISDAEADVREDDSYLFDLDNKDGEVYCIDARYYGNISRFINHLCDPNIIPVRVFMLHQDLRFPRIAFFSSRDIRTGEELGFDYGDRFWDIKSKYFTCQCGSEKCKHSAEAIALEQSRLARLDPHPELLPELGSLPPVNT
As to the kind of experiment: AlphaLISA based G9a methyltransferase inhibition screening (H3K9 dimethylation). The format is biochemical. On the procedure:
Inhibition of G9a was examined in an AlphaLISA based format with protocols provided by PerkinElmer. In brief, compounds were incubated for 30 min on white 384-well microplates at the indicated concentration and with 5 nM G9a (Supplementary Information, Figure S1), 100 nM histone H3 (1–21) fragment and 15 µM SAM in assay buffer (50 mM Tris–HCl (pH = 9.0); 50 mM NaCl, 1 mM dithiothreitol, 0.01% Tween-20). Incubation was terminated by addition of anti-H3K9me2 acceptor beads in provided detection buffer. After incubating the mixture for 60 min, streptavidin-coated donor beads were added to the mix for additional 30 min. Luminescence was then measured using the AlphaLISA luminescence filter of an Infinite M1000pro multiplate reader (Tecan, Maennedorf, Switzerland) for 1,000 ms (integration time).
For experiments employing radiolabeled ligands, raw data that were measured as counts-per-minute [c.p.m.] were reduced by non-specific binding. For affinity measurements, such results were fitted to least-squares method “One site competition” of GraphPad Prism version 7.0 (La Jolla, CA, United States) and final values were calculated as means [95% confidence interval]. […] Data were stated as means ± s.d. […] Data were stated as means ± s.d. with the indicated number of replicates. For CRE-Luc assays, data were normalized to luminescence derived by forskolin containing samples (= 100%) and minimum luminescence measured in samples containing forskolin + N^α-methylhistamine (10 µM) (= 0%). Data from both experiments were globally fit to the “Gaddum/Schild EC50 shift” model of GraphPad Prism and were stated as means [95% confidence interval].

Experiment [2] deals with T3, human isoform of histamine H3 receptor (hH3R) (Homo sapiens, UniProt Q9Y5N1).
T3 construct: expressed in transfected cells; host or cells: HEK-293T
T3 sequence (Q9Y5N1 whole entry, canonical isoform): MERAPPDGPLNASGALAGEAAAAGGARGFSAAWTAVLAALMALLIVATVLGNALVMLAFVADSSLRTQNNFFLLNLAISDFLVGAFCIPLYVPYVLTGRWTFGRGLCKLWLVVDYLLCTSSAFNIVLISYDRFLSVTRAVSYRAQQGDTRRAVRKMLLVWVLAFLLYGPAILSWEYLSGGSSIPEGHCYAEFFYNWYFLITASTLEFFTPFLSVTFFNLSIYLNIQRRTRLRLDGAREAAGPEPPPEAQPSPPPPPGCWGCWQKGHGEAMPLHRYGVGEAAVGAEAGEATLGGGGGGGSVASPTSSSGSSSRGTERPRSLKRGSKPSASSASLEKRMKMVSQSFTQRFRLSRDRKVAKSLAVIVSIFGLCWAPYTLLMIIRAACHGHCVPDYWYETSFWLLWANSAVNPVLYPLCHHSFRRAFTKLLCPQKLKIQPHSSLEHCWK
Put plainly: [3H]Nα-methylhistamine displacement at hH3R, membranes of transfected HEK-293T cells. The format is binding. On the procedure:
NM_007232.3) was determined in radioligand displacement studies at membrane preparations of transfected HEK-293 T cells. […] The workflow to terminate incubation and measurement of bound radioligand was identical for both experimental set-ups. Briefly, samples were filtrated from microplates onto GF/B filters presoaked with 0.3% polyethyleneimine solution using a 96-well cell harvester. Filter mats were washed three times with water at 4 °C, dried for 60 min (54 °C), soaked with scintillation liquid (Betaplate Scint, PerkinElmer), sealed and subjected to scintillation counting. For experiments employing radiolabeled ligands, raw data that were measured as counts-per-minute [c.p.m.] were reduced by non-specific binding. For affinity measurements, such results were fitted to least-squares method “One site competition” of GraphPad Prism version 7.0 (La Jolla, CA, United States) and final values were calculated as means [95% confidence interval]. […] Data were stated as means ± s.d. […] Data were stated as means ± s.d. with the indicated number of replicates. […] Data from both experiments were globally fit to the “Gaddum/Schild EC50 shift” model of GraphPad Prism and were stated as means [95% confidence interval].

For another experiment, the target named is Spindlin1 (Homo sapiens, UniProt Q9Y657). As to the kind of experiment: Spindlin1 inhibition, fluorescence polarization displacement assay. The format is binding. The note with it: for Spindlin1 inhibition: fluorescence polarization-based screening. On the procedure:
Spindlin1 inhibition was determined using the fluorescence polarization displacement assay described by Wagner et al.[37] For the IC50 values, 12 concentrations were measured in triplicates.

Where two headings read alike, the source gives them in different places.

Spindlin1, sequence (Q9Y657 whole entry, species assumed): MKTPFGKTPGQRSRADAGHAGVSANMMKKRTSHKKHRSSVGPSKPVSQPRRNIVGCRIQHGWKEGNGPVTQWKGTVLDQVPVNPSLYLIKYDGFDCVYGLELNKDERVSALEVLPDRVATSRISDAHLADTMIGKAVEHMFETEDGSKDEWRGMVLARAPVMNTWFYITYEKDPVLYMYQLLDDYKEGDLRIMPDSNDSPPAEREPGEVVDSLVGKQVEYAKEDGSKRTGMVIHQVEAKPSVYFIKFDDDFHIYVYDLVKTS
T1 sequence (Q9QYN8 whole entry, canonical isoform): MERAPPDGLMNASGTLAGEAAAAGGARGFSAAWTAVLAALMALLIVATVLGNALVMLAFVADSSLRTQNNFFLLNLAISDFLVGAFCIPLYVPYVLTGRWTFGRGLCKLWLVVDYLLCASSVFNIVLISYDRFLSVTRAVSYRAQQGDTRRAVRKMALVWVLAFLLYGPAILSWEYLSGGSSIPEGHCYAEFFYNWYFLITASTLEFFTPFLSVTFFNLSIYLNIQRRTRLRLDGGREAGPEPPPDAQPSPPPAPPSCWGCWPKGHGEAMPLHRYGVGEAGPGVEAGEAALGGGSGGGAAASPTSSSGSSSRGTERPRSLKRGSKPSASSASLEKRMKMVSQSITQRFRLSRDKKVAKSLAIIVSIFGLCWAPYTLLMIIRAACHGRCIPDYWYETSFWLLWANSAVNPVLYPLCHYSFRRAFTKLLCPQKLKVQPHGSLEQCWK

In experiment [1], `COc1cc2c(cc1OCCCN1CCCC1)N=C(N)C21CCC1` [A-366] came in with a Kb of 15 nM. The same molecule gave a Schild-plot slope in experiment [1] (rH3R, mean ± 95% confidence interval, not significantly different from unity) of 0.79 ± 0.45. For the same molecule, the inhibition at 10 µM on G9a was 100 ± 0.04%. The Ki in experiment [2] ([3H]Nα-methylhistamine 2 nM, 90 min, mean [95% CI], read-out: hH3R affinity Ki [CI95%]) was 17 nM.
As for `O=C(c1ccc(OCCCN2CCCCC2)cc1)C1CC1` [UCL-2190], the inhibition at 10 µM against G9a was determined as 13.9 ± 9.3%. Moreover, on Spindlin1, the Spindlin1 inhibition entry is recorded as “No inhibition”.
In the case of `Clc1ccc(CCCOCCCN2CCCCC2)cc1` [Pitolisant], on Spindlin1, the Spindlin1 inhibition entry was “No inhibition”.
The same measure, in the same setting: the result for `O=C(c1ccc(OCCCc2cnc[nH]2)cc1)C1CC1` [Ciproxifan] reads “No inhibition”.
On to `COc1cc2c(NC3CCN(C(C)C)CC3)nc(N3CCC(F)(F)CC3)nc2cc1OCCCN1CCCC1` [UNC-0642], for which the inhibition at 10 µM against G9a stood at 99.9 ± 0.09%. This molecule displayed a Ki in experiment [2] of 1.8 nM. This molecule displayed an IC50 on Spindlin1 (fluorescence polarization, 12 concentrations in triplicates) of 2700 nM.
